Data published in paper PMC4727820 (Scientia Pharmaceutica, 2014).
≈ marks a conversion by molar mass, not a printed value. Like-named read-outs stand apart in the source and are kept apart here.

Legend:
[1] = Solubility in phosphate buffer (0.16 M); format: physicochemical; conditions: aqueous buffer, thermodynamic from solid
Method: Excess amounts of each salt were added to the phosphate buffer (0.5 ml) individually. The mixtures were stirred and centrifuged at 6000 rpm for 6 min. The concentrations of each of the salts in their saturated solutions were analyzed by HPLC. The pH of the solutions was held constant throughout the experiment.

[2] = In vitro skin permeation study, Franz-type diffusion cell; format: in vitro ADME; conditions: male, Wistar, rat, read-out: Kp x10^6 (permeability coefficient) (converted)
Method: The in vitro skin permeation study was performed by using skin from the whole dorsal area of a male Wistar rat. […] For each salt and the parent drug, the cumulative amounts permeated through the skin were plotted against time. A steady-state flux (Jss) was obtained by dividing the slope of that graph by the surface area of the diffusion cell (4.906 cm^2).
All the reagents and solvents required for the syntheses were purified by general laboratory techniques before use. The purity of the compounds and completion of the reactions were monitored by thin layer chromatography (TLC) on silica gel plates (60 F254; Merck), visualized with ultraviolet light or iodine vapors. […] Melting points were determined using a Veego make silicon oil bath-type melting point apparatus and are uncorrected. The IR spectra were recorded using the KBr disc method in cm^−1 on a Bruker FTIR, Model 8300. The PMR spectra were recorded in CDCl3 on a Bruker 400 MHz spectrometer (chemical shifts in δ ppm, coupling constant J in Hz). λmax was determined on the Shimadzu 1800 UV spectrophotometer. The mass of the compounds was determined by LC-MS using electron impact as the source of ionization. DSC was performed on the Shimadzu DSC-60 model with the thermal analyser TA 60WS. The scanning electron microscope (SEM) model ESEM-EDAX XL-30, Philips (Netherlands) was used for the study of surface morphology. In vitro skin permeation studies were conducted using a Franz-type diffusion cell using skin from the whole dorsal area of a male Wistar rat (200 ± 10 g). Animal experiments were performed with the approval of the institutional animal ethical committee (MSU/PHARM/IAEC/2011/14) in accordance with Laboratory Animal Welfare guidelines.
In vitro skin permeation studies were performed by using skin from the whole dorsal area of a male Wistar rat in a Franz-type diffusion cell. Skin specimens were rehydrated before being mounted in the diffusion cell. The receptor medium (0.05 M phosphate buffer saline solution of pH 7.4) was stirred and kept at 37±1°C throughout the study.
The permeability coefficients (Kp) for the steady-state delivery were obtained by dividing the steady-state flux (Jss) by the solubilities of the compounds in the corresponding vehicle. The receiver medium (0.05 M phosphate buffer saline solution of pH 7.4) was stirred and kept at 37±1°C throughout the study. The compounds were applied as solutions in the phosphate buffer of pH 5.0 or 7.4. At specified time intervals, aliquots (0.5 ml) were withdrawn from the receiver compartment and replaced with fresh buffer. The drug concentrations were analyzed by HPLC.

[3] = cited from earlier work

SMILES | solubility ([1]; pH 5.0, room temperature) | solubility ([1]; pH 7.4, room temperature) | Papp ([2]; pH 5) | Papp ([2]; pH 7.4) | half-life [3]
O=C(O)Cc1ccc(-c2ccccc2)cc1 [compound 1, reference compound] | 0.57 ± 0.14 mM (≈ 121 µg/mL) | 54.08 ± 0.14 mM (≈ 11500 µg/mL) | 0.208 ×10⁻⁶ cm/s | 0.00833 ×10⁻⁶ cm/s | > 10 h
O=C([O-])Cc1ccc(-c2ccccc2)cc1.[Na+] [1a] | 14.2 ± 0.31 mM | 17.1 ± 0.21 mM | 0.0333 ×10⁻⁶ cm/s | 0.0667 ×10⁻⁶ cm/s | 
NCCO.O=C(O)Cc1ccc(-c2ccccc2)cc1 [1b] | 28.96 ± 0.28 mM | 24.1 ± 0.34 mM | 0.0222 ×10⁻⁶ cm/s | 0.178 ×10⁻⁶ cm/s | 
